Among the test systems are A549 NSCLC; HCT-15 colon; HOP-62 NSCLC; HS 578T breast; KM12 colon; NCI-H226 lung; OVCAR-3 ovarian; SF-539 CNS; SW-620 colon; UACC-62 melanoma.
Holding throughout (assay): NCI anticancer screen, dose series, 48 h

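Briefly, cells in 96-well plates were exposed to five compound concentrations for 48 h, and endpoints were estimated by linear interpolation. At the GI50, growth is halved. TGI marks complete inhibition of growth.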 Bounds are passed on as bounds.

Turning to `Clc1nc(Cl)nc(Nc2cccc3ccccc23)n1`, the GI50 in the test on A549 NSCLC was greater than 100 µM; in the test on HCT-15 colon it was 96.5 µM; with HOP-62 NSCLC, greater than 100 µM; in the test on HS 578T breast, greater than 100 µM; with KM12 colon it was 93.7 µM; with NCI-H226 lung, greater than 100 µM. For the same molecule, the GI50 in the test with OVCAR-3 ovarian is greater than 100 µM; in the test with SF-539 CNS, greater than 100 µM; with SW-620 colon, 94.7 µM; in the test on UACC-62 melanoma it was 82.5 µM. The TGI with A549 NSCLC, with HCT-15 colon, with HOP-62 NSCLC, with HS 578T breast, in the test on KM12 colon and in the test on NCI-H226 lung was greater than 100 µM in each case. The TGI in the test on OVCAR-3 ovarian, in the test with SF-539 CNS, in the test with SW-620 colon and in the test on UACC-62 melanoma was greater than 100 µM throughout.

As to `O=[P@@]1(c2ccccc2)O[C@H](COCc2ccccc2)[C@@H](OCc2ccccc2)[C@H](OCc2ccccc2)[C@H]1NCc1ccccc1`, the GI50 was 3.04 µM in the test on A549 NSCLC; 3.54 µM in the test on HCT-15 colon; 3.77 µM with HOP-62 NSCLC; 3.43 µM with HS 578T breast; 3.21 µM in the test on KM12 colon; 3.43 µM in the test on NCI-H226 lung. The GI50 is 3.17 µM in the test on OVCAR-3 ovarian, 4.74 µM in the test on SF-539 CNS, 3.52 µM in the test on SW-620 colon and 2.92 µM in the test on UACC-62 melanoma. The TGI is greater than 100 µM in the test on A549 NSCLC; greater than 100 µM in the test on HCT-15 colon; greater than 100 µM in the test on HOP-62 NSCLC; greater than 100 µM in the test with HS 578T breast; 47.3 µM with KM12 colon; 85.2 µM in the test with NCI-H226 lung. Also, the TGI in the test with OVCAR-3 ovarian is 19.3 µM; with SF-539 CNS, greater than 100 µM; in the test with SW-620 colon, greater than 100 µM; with UACC-62 melanoma it was 13.1 µM.

Regarding `COC(=O)c1ccc(-c2c(C#N)[n+](=O)c3cc(Cl)c(Cl)cc3n2[O-])cc1`, the GI50 in the test with A549 NSCLC was 47.4 µM; in the test with HCT-15 colon it was 11.1 µM; in the test with HOP-62 NSCLC, 16.8 µM; with HS 578T breast, 25.7 µM; with KM12 colon, 20.9 µM; in the test on NCI-H226 lung, 25.7 µM. The GI50 in the test on OVCAR-3 ovarian is 11 µM; in the test on SF-539 CNS, 19.7 µM; in the test with SW-620 colon it was 17.8 µM; in the test on UACC-62 melanoma it was 15.3 µM. In addition, the TGI in the test on A549 NSCLC is greater than 100 µM; in the test with HCT-15 colon, 91.2 µM; in the test with HOP-62 NSCLC, 34.8 µM; in the test with HS 578T breast, 92.2 µM; with KM12 colon, 51.3 µM; with NCI-H226 lung it was 70.6 µM. In addition, the TGI in the test with OVCAR-3 ovarian turned out to be 27.8 µM; in the test on SF-539 CNS, 40.5 µM; with SW-620 colon, 45.4 µM; in the test with UACC-62 melanoma, 31.7 µM.

Turning to `C=CCc1ccc(O)c(-c2ccc(O)c(CC=C)c2)c1`, the GI50 in the test on A549 NSCLC is 30.7 µM; in the test on HCT-15 colon it was 16.5 µM; with HOP-62 NSCLC, 20 µM; with HS 578T breast, 14.2 µM; with KM12 colon it was 13.6 µM; with NCI-H226 lung, 18.4 µM. The GI50 in the test on OVCAR-3 ovarian was 14.5 µM; in the test on SF-539 CNS, 16.6 µM; in the test with SW-620 colon, 18.7 µM; with UACC-62 melanoma, 16 µM. Further, the TGI in the test with A549 NSCLC was greater than 100 µM; in the test on HCT-15 colon, 33.7 µM; in the test on HOP-62 NSCLC it was 39.8 µM; with HS 578T breast, 39.7 µM; with KM12 colon, 34 µM; with NCI-H226 lung it was 36.9 µM. In addition, the TGI in the test with OVCAR-3 ovarian came to 30.6 µM; in the test with SF-539 CNS, 31.8 µM; with SW-620 colon it was 36.9 µM; in the test on UACC-62 melanoma, 30 µM.

As to `O=C(Nc1cc(C(F)(F)F)ccc1Cl)c1cccc(NC2=C(Cl)C(=O)N(Cc3ccccc3)C2=O)c1`, the GI50 in the test with A549 NSCLC is 72.8 µM; in the test on HCT-15 colon it was 23.5 µM; in the test with HOP-62 NSCLC it was greater than 100 µM; in the test on HS 578T breast it was 53.7 µM; in the test on KM12 colon, 52.9 µM; in the test on NCI-H226 lung, 17.6 µM. Besides, the GI50 in the test on OVCAR-3 ovarian is 34.3 µM; in the test with SF-539 CNS, 26.4 µM; in the test on SW-620 colon, 52.7 µM; with UACC-62 melanoma it was 26.5 µM. Moreover, the TGI in the test with A549 NSCLC, in the test on HCT-15 colon, in the test on HOP-62 NSCLC, in the test with HS 578T breast, in the test on KM12 colon and with NCI-H226 lung was greater than 100 µM throughout. In addition, the TGI in the test with OVCAR-3 ovarian is greater than 100 µM; in the test with SF-539 CNS, 53.7 µM; in the test on SW-620 colon, greater than 100 µM; in the test with UACC-62 melanoma, greater than 100 µM.

Take `O=C1CCC/C=C\C[C@H]2C=CC(=O)/C2=C/C[C@H](C/C=C\CC(F)(F)F)O1`: the GI50 was 0.528 µM in the test with A549 NSCLC; 0.316 µM in the test with HCT-15 colon; 0.333 µM in the test with HOP-62 NSCLC; 1.17 µM in the test on HS 578T breast; 0.299 µM with KM12 colon; 0.382 µM in the test on NCI-H226 lung. Moreover, the GI50 with OVCAR-3 ovarian was 0.538 µM; with SF-539 CNS, 0.676 µM; with SW-620 colon, 0.508 µM; with UACC-62 melanoma, 0.28 µM. Further, the TGI amounted to 2.38 µM with A549 NSCLC; 0.867 µM in the test with HCT-15 colon; 0.757 µM with HOP-62 NSCLC; 9.68 µM with HS 578T breast; 0.635 µM in the test with KM12 colon; 1.01 µM in the test with NCI-H226 lung. In addition, the TGI in the test on OVCAR-3 ovarian was determined as 1.75 µM; with SF-539 CNS, 3.08 µM; in the test with SW-620 colon, 2.05 µM; with UACC-62 melanoma, 0.765 µM.

For `O=[N+]([O-])c1ccc(CI)cc1`, the GI50 in the test with A549 NSCLC was 3.68 µM; with HCT-15 colon, 1.17 µM; in the test with HOP-62 NSCLC, 3.38 µM; in the test with HS 578T breast, 3.53 µM; with KM12 colon, 3.52 µM; in the test with NCI-H226 lung it was 5.66 µM. Besides, the GI50 was 2.4 µM in the test on OVCAR-3 ovarian, 2.66 µM in the test with SF-539 CNS, 0.803 µM in the test on SW-620 colon and 2.94 µM in the test on UACC-62 melanoma. Also, the TGI in the test with A549 NSCLC stood at 14.5 µM; with HCT-15 colon, 3.76 µM; in the test on HOP-62 NSCLC, 12.5 µM; in the test with HS 578T breast it was 24.2 µM; with KM12 colon it was 12 µM; in the test on NCI-H226 lung, 23.5 µM. In addition, the TGI in the test on OVCAR-3 ovarian worked out at 5.41 µM; in the test on SF-539 CNS, 8.19 µM; in the test with SW-620 colon, 3.22 µM; in the test on UACC-62 melanoma, 12.2 µM.

These data come from PubChem BioAssay (NCI).
